According to US12187624B2, “Method of acylating amino acids and uses of N-acyl amino acid products” (NewSouth Innovations Pty Limited, priority 2019, dated 2025):
Values joined by “and” are separate entries in the source; they are usually repeats but may differ in a detail not shown here. Equal entries are not always repeated.

How the values were obtained:
[1] = Ion flotation of Cd solution in air bubble column, ICP-MS analysis; settings: Csurfactant = 0.01M
Experimental: (§1) In a model experiment, 0.01M of the N-octanoyl-cys surfactant was dissolved (with heating around 65° C. while stirring) in a 5 mg L^−1 solution (i.e. 5 ppm) of Cd containing 0.1 M NaOH and finally made up to 100 ml using Milli-Q water, with the pH of around 8.
(§2) The solution was then poured into a column (with 30 cm height and 3 cm diameter) while a 2 L/min flow of air gas was passed through it with air pump (Hiblow HP40, Philippines). Two samples were taken after each of 30 and 60 minutes from around 2 cm top of the sinter, and the Cd concentrations of each sample was determined by ICP-MS analysis. The upper-outlet foam was also collected in a waste container using an outlet tube.
The same procedure was used with the N-octyl-cys surfactant in the flotation experiment, but where the pH of the solution was increased to 12, to enable this surfactant to successfully produce a foam (this difference is discussed later).

[2] = Ion flotation of calcium solution in air bubble column, ICP-MS analysis
Experimental: as §1, §2
In the second series of ion flotation experiments, N-octanoyl-cys surfactant (obtained by Exemplary method 1) was used for removing calcium ions using air in the ion flotation process.

[3] = cited from earlier work
[4] = Foaming test of surfactant solutions at different pH; format: physicochemical; settings: Csurfactant = 0.01M; solutions at pH 3, 6, 9, 12 (FIG. 6)
Source text: FIG. 6 is a pair of photos from the foaming test described in Example 2; the first photo (upper) is a photo of N-octanoyl cysteine solutions at: pH 3 (far left), pH 6 (middle left), pH 9 (middle right) and pH 12 (far right) and the second photo (lower) is a photo of N-octyl cysteine solutions at: pH 3 (far left), pH 6 (middle left), pH 9 (middle right) and pH 12 (far right). (Csurfactant=0.01M and the pH adjusted with […]).

[5] = Critical micelle concentration (CMC) from conductivity versus surfactant concentration; format: physicochemical
Experimental: The CMC of N-octanoyl-cys prepared by this method was determined to be 0.1M. The CMC was determined using a Bench-Top water quality meter, SPER SCIENTIFIC Instrument model 860033 to measure the conductivity and pH of the surfactant solution. The CMC value of the surfactant was measured by plotting conductivity values versus different surfactant concentrations at pH 9 by adding NaOH solution (0.1 mol L^−1) and 25.0° C. The CMC was obtained as the point of sharp transition in the slope of conductivity with increasing surfactant concentration (data not shown).
The CMC of the N-octanoyl-cys surfactant prepared by Exemplary method 1, in Na^+ form at pH 8, was determined (as reported above for Comparative method 1 above from measurements of the electrical conductivity with surfactant concentration) to be about 0.09 mol/L, see FIG. 3.
The same protocols as described above were used to determine the CMC and melting point of the twice-recrystallised N-octyl-cysteine surfactant. The values measured were 0.1M and 145° C., respectively. These values are consistent with literature values.

[6] = pH 12, Ccalcium = 5 mg L^−1, Csurfactant = 0.01M, air bubbles

CCCCCCCC(=O)N[C@@H](CS)C(=O)O [N-octanoyl-cys, N-octanoyl-cysteine]
Adsorption (%) After 60 min ([1]; operating pH 8, 5 mg L^−1 Cd, listed as N-octanoyl-cys (Comparative method 1)): 99.2%
Adsorption (%) After 60 min ([1]; operating pH 8, 5 mg L^−1 Cd, listed as N-octanoyl-cys (Exemplary method 1)): 99.8%
Adsorption (%) After 60 min ([1]; operating pH 12, 5 mg L^−1 Cd): 12.3%
Adsorption (%) After 60 min ([2]; pH 8, Ccalcium = 5 mg L^−1, Csurfactant = 0.01M): 97% and 97.3%
C(mg L^−1) (RSD %) After 30 min ([2]; pH 8, Ccalcium = 5 mg L^−1, Csurfactant = 0.01M, air bubbles): 0.72 (42.02) mg L^−1
pKa of the amide group (protonation) [3]: around −0.5
pH at which the surfactant starts foaming (foaming point) [4]: ~6
CMC ([5]; N-octanoyl-cys prepared by Comparative method 1, pH 9 (NaOH), 25.0° C.): 0.1 M
CMC ([5]; prepared by Exemplary method 1, in Na+ form at pH 8): about 0.09 mol/L

CCCCCCCCN[C@@H](CS)C(=O)O [N-octyl-cys, N-octyl-cysteine]
Adsorption (%) After 60 min ([1]; operating pH 12, 5 mg L^−1 Cd): 14.2%
Adsorption (%) After 60 min ([2]; pH 12, Ccalcium = 5 mg L^−1, Csurfactant = 0.01M): 14% and 14.6%
C(mg L^−1) (RSD %) After 30 min [2, 6]: 4.89 (0.87) mg L^−1
C(mg L^−1) (RSD %) After 60 min [2, 6]: 4.27 (3.31) mg L^−1
pKa of the amine group (protonation) [3]: about 10.7
pH at which the surfactant starts foaming (foaming point) [4]: > 12

N-octyl-cysteine [reference compound]
CMC ([5]; twice-recrystallised surfactant, same protocols as for N-octanoyl-cys): 0.1 M
